{
  "source": "patent US20100273656A1",
  "about": "“COMPOSITION AND METHOD FOR SELECTIVE HERBICIDE” (priority 2002, published 2010)",
  "key": {"[1]": {"test_system": "grass", "test": "Example 2 field test of FeEDDS and FeHEDTA at pH 3 and 7, grass", "assay_type": "in vivo", "settings": "solution pH 2.6-3.0; field, 0.1 L/m^2, 4 days after spraying", "protocol": "(§1) The following non-limiting examples serve to further describe the invention. Unless otherwise specified, all of the iron solutions were made using the same molar concentration of iron ion as chelating agent. All of the outside tests were done on areas of mixed grass and dandelions that were at least 2 months old. For the greenhouse tests, dandelions were grown in a commercial greenhouse mix, using supplemental lighting and heating. Each plant was grown in a 2¼ inch pot to a minimum diameter of 20 cm. All of the solutions were sprayed onto the plants at a rate of 100 ml/m^2. The ferrous sulfate formulations that were used in examples 1, 2, 8 and 9 contained 1% iron (180 mM), 18 mM EDTA, 1% citric acid and 0.5% urea. In all of the examples, the amount of iron is identified in brackets as the percent iron on a weight basis.\n(§2) All plant damage was assessed using a qualitative rating scale from 0 to 9.\n(§3) The FeEDDS and FeHEDTA solutions contained 0.2% Fe^+3 (35.8 mM). The ferrous sulfate contained 1% Fe^+2 (179.1 mM). The solutions were sprayed at a rate of 0.1 L/m^2 onto 2 plots of 0.5 m^2 of mixed grass and dandelions. Observations were made 4 days after spraying."}, "[2]": {"test_system": "dandelions", "test": "Example 1 field test of iron chelates, dandelion damage", "assay_type": "in vivo, Taraxacum officinale", "settings": "sprayed once at 100 ml/m^2, 5 days after spraying", "protocol": "as §1, §2\n(§4) All of the iron chelates were sprayed once at 0.2% Fe^+3 (35.8 mM), at a volume of 100 ml/m^2 onto 0.5 m^2 areas of mixed grass and dandelions. The spraying of the test was followed by 2 days of rain-free weather. Observations were made 5 days after spraying."}, "[3]": {"test_system": "dandelions", "test": "Example 2 field test of FeEDDS and FeHEDTA at pH 3 and 7, dandelion", "assay_type": "in vivo, Taraxacum officinale", "settings": "solution pH 2.6-3.0, 0.1 L/m^2, 4 days after spraying", "protocol": "as §1, §2, §3"}, "[4]": {"test_system": "dock (Rumex crispus)", "test": "Example 9 lawn restoration, dock coverage", "assay_type": "in vivo", "settings": "after 18 days, sprayed twice", "protocol": "(§5) Na4EDTA was added to the ferrous sulfate solution at 1.5% (36 mM). The molar level of EDTA is 1/10 that of the iron ions. […] The urea is added as a nitrogen fertilizer source to encourage the growth of the grasses."}, "[5]": {"test_system": "dandelions", "test": "Example 7 potassium nonanoate with FeHEDTA, greenhouse dandelions", "assay_type": "in vivo, Taraxacum officinale", "settings": "for Dead Plants (#/10): 8 + 5 days after spraying", "protocol": "as §1, §2\nThis test compared the damaged caused by combinations of fatty acid and FeHEDTA. FeHEDTA was used at a concentration to 35.8 mM. The treatment with 0.1% Fe contained twice the molar amount of chelating agent as iron. The treatment with 0.2% iron contained the same molar amount of chelating agent as iron Potassium nonanoate (KC9) was used at 0.84%. The plants were re-sprayed 8 days after the first spray."}, "[6]": {"test_system": "dandelions (Taraxacum officinale)", "test": "Example 9 lawn restoration, dandelion coverage", "assay_type": "in vivo", "protocol": "as §5"}, "[7]": {"test_system": "grass", "test": "Example 1 field test of iron chelates, grass damage", "assay_type": "in vivo", "settings": "field, sprayed once at 100 ml/m^2, 5 days after spraying", "protocol": "as §1, §2, §4"}, "[8]": {"test_system": "daisy plants (Bellis perennis BELPE)", "test": "Example 8 field daisy test of iron solutions", "assay_type": "in vivo", "settings": "0.5 L/m^2, 6 days after spraying", "protocol": "as §1"}, "[9]": {"test_system": "dandelions", "test": "Example 3 FeSO4, EDTA, EDDS and MH combinations on potted dandelions", "assay_type": "in vivo, Taraxacum officinale", "settings": "for Plant Death (%) Dandelion: 3 days after second spray; for Plant Damage (0 to 9) Dandelion: 3 days after second spray (re-sprayed after 9 days)", "protocol": "as §1, §2\n(§6) This test investigated the effect of 10% chelation and pH on potted grass and dandelions. All of the solutions contained 10% ferrous sulfate heptahydrate, resulting in a Fe^+2 concentration of 2% (358.1 mM). EDTA and EDDS were added at 1/10th of the iron molar concentration (35.8 mM). MH was added 1%. The dandelions and turf grasses were sow in separate pots 3 weeks prior to the start of the test.\n(§7) The plants were re-sprayed after 9 days."}, "[10]": {"test_system": "turf grasses", "settings": "for Plant Death (%) Grass: 3 days after second spray; for Plant Damage (0 to 9) Grass: 3 days after second spray (re-sprayed after 9 days)", "protocol": "as §1, §2, §6, §7"}, "[11]": {"test_system": "grass", "test": "Example 9 lawn restoration, grass coverage and damage", "assay_type": "in vivo", "settings": "after 18 days, sprayed twice", "protocol": "as §5"}},
  "note": "Read-outs that look alike come from different tables or passages of the source.",
  "data": [
    {"compound": "O=S(=O)([O-])[O-].[Fe+2]", "note": "[FeSO4, ferrous sulfate]", "values": [
      {"measurement": "Grass Damage (0 to 9)", "setting": "[1]", "value": "7.0 0 to 9"},
      {"measurement": "Dandelion Damage (0 to 9)", "setting": "[2]", "value": "6.3 0 to 9"},
      {"measurement": "Dandelion Damage (0 to 9)", "setting": "[3]", "value": "7.0 0 to 9"},
      {"measurement": "Plot Area Covered (%) By: Dock", "setting": "[4]", "value": 14, "unit": "%"},
      {"measurement": "Plant Damage (0 to 9)", "setting": "[5]; 8 + 5 days after spraying (re-sprayed after 8 days), listed as FeSO4 (0.2% Fe^+2)", "value": "0.2 0 to 9"},
      {"measurement": "Plant Damage (0 to 9)", "setting": "[5]; 8 + 5 days after spraying (re-sprayed after 8 days), listed as FeSO4 (1% Fe^+2)", "value": "7.2 0 to 9"},
      {"measurement": "Plant Damage (0 to 9)", "setting": "[5]; 8 + 5 days after spraying (re-sprayed after 8 days), listed as FeSO4 (2% Fe^+2)", "value": "8.4 0 to 9"},
      {"measurement": "Dead Plants (#/10)", "setting": "[5]; listed as FeSO4 (0.2% Fe^+2)", "value": "0 #/10"},
      {"measurement": "Dead Plants (#/10)", "setting": "[5]; listed as FeSO4 (1% Fe^+2)", "value": "5 #/10"},
      {"measurement": "Dead Plants (#/10)", "setting": "[5]; listed as FeSO4 (2% Fe^+2)", "value": "8 #/10"},
      {"measurement": "Plant Damage (0 to 9)", "setting": "[5]; 7 days after spraying, listed as FeSO4 (0.2% Fe^+2)", "value": "0.8 0 to 9"},
      {"measurement": "Plant Damage (0 to 9)", "setting": "[5]; 7 days after spraying, listed as FeSO4 (1% Fe^+2)", "value": "4.4 0 to 9"},
      {"measurement": "Plant Damage (0 to 9)", "setting": "[5]; 7 days after spraying, listed as FeSO4 (2% Fe^+2)", "value": "6.2 0 to 9"},
      {"measurement": "effect on dandelion (and dock) in the plots, in words", "setting": "[6]; Example 9, text", "value": "did not appear to reduce the area covered by dandelions"},
      {"measurement": "Plot Area Covered (%) By: Dandelion", "setting": "[6]; after 18 days, sprayed twice", "value": 65, "unit": "%"},
      {"measurement": "Grass Damage (0 to 9)", "setting": "[7]", "value": 7},
      {"measurement": "Daisy Mortality (%)", "setting": "[8]", "value": 6, "unit": "%"},
      {"measurement": "Plant Death (%) Dandelion", "setting": "[9]; pH 3", "value": 76, "unit": "%"},
      {"measurement": "Plant Damage (0 to 9) Dandelion", "setting": "[9]; pH 3", "value": "8.2 0 to 9"},
      {"measurement": "Plant Death (%) Dandelion", "setting": "[9]; pH 6", "value": 17, "unit": "%"},
      {"measurement": "Plant Damage (0 to 9) Dandelion", "setting": "[9]; pH 6", "value": "6.0 0 to 9"},
      {"measurement": "Plant Death (%) Grass", "setting": "[10]; pH 3", "value": 0, "unit": "%"},
      {"measurement": "Plant Damage (0 to 9) Grass", "setting": "[10]; pH 3", "value": 4},
      {"measurement": "Plant Death (%) Grass", "setting": "[10]; pH 6", "value": 0, "unit": "%"},
      {"measurement": "Plant Damage (0 to 9) Grass", "setting": "[10]; pH 6", "value": 0},
      {"measurement": "Grass Damage (0 to 9)", "setting": "[11]", "value": 1},
      {"measurement": "Plot Area Covered (%) By: Grass", "setting": "[11]", "value": 20, "unit": "%"}
    ]}
  ]
}
